{
  "source": "patent US20100197584A1",
  "about": "“USE OF CURCUMIN TO BLOCK BRAIN TUMOR FORMATION IN MICE” (Research Foundations of the City University of- New York, priority 2007, published 2010)",
  "key": {"BclXL": {"tested_on": "BclXL", "assay": "Western blot of B16F10 cells, BclXL", "type": "cell-based, mouse", "conditions": "50 μM (FIG. 9)", "procedure": "B16F10 cells were cultured in 10-cm plates and then treated in duplicate with carrier or curcumin (50 μM). Following treatment for appropriate time periods, the cells were washed with PBS, lysed in RIPA buffer (PBS containing 1% Nonidet P40, 0.5% sodium deoxycholate, 0.1% SDS, 0.5 mM Na3VO4 plus freshly added PMSF and protease inhibitor cocktail; Boeringer-Roche), and then 20 μg of lysate protein (per lane) were analyzed by SDS-10% PAGE and Western blot analysis. Antibody concentrations used were: anti-phospho-NF-κB (1:1000) (Santa Cruz Biotechnology, Santa Cruz, Calif.), anti-phospho-Akt (1:5000) (Cell Signaling, CA), anti-cyclin D1 (1:1000) (Cell Signaling, CA), anti-BclXL (1:500) (Santa Cruz Biotechnology), anti-VEGF (1:500) (Santa Cruz Biotechnology), and anti-β-actin (1:1000) (Sigma, St. Louis, Mo.)."}, "rat glioma cells": {"tested_on": "rat glioma cells", "conditions": "rat glioma cells in vitro (Karmakar 2006; Dhandapani 2007); cited from earlier work"}, "[1]": {"tested_on": "B16F10 (mouse melanoma) cells", "assay": "Cell viability assay using MTT, B16F10", "type": "cell-based", "conditions": "25 μM and 50 μM, 48 h or 96 h, versus control cells (FIG. 6a)", "procedure": "Cells. B16F10 (mouse melanoma), GL261 (mouse glioma), HOG (human oligodendroglioma), A549 (human lung cancer), and N18 (mouse neuroblastoma) cells were cultured separately in DMEM containing 10% (v/v) fetal bovine serum and 1% (v/v) penicillin-streptomycin (PS) and allowed to grow to 40% confluence in a 96-well plate.\nCurcumin Treatment. Two hours before drug treatment, the medium in each well was replaced with 200 μl Neurobasal medium supplemented with 2% (v/v) B27 and 1% (v/v) PS (Drug-treatment Medium). A stock solution (40 mM) of curcumin was prepared in sterile dimethyl sulfoxide (DMSO) (Example 1). Through serial dilution of each stock solution in Drug-treatment Medium, the following concentrations were obtained: 20 μM and 50 μM (for caspase 3/7 assays) or 25 μM and 50 μM (for MTT assays). […] Additionally, the background absorbance was determined from parallel wells containing only the Drug-treatment Medium plus a particular concentration of the drug (no cells).\nCell Viability Assay Using MTT (3-(4,5-Dimethylthiazolyl-2)-2,5-Diphenyltetrazolium Bromide). […] Absorbance was measured at 570 nm using a 96-well multi scanner auto-reader with the extraction buffer used as blank. For curcumin samples, the absorbance obtained from the corresponding curcumin plus medium samples was subtracted."}, "[2]": {"tested_on": "B16F10 mouse melanoma cells", "assay": "Tumor formation in peripheral tissue (B16F10 cells injected into the neck)", "type": "in vivo, C57BL mice", "procedure": "Generation of Tumors. C57BL mice were given food and water ad libitum and subjected to 12 hour dark/12 hour light cycles. To generate tumors in the peripheral tissue, B16F10 mouse melanoma cells (10^4 cells in 10 μl PBS) were injected into the necks of male and female C57BL mice. Curcumin Treatment. The control mice received, aseptically, the carrier (3% DMSO in 200 μl PBS) daily through the tail vein after placing the mouse in a restraining cage without anesthetics. Other mice similarly received […] in 200 μl of PBS containing 3% DMSO daily through the tail vein."}, "[3]": {"tested_on": "HOG (human oligodendroglioma) cells", "assay": "Caspase-3/7 assay in HOG cells", "type": "cell-based", "conditions": "20 μM and 50 μM, 48 h or 96 h (FIG. 3)", "procedure": "Cells. B16F10 (mouse melanoma), GL261 (mouse glioma), HOG (human oligodendroglioma), A549 (human lung cancer), and […] (mouse neuroblastoma) cells were cultured separately in DMEM containing 10% (v/v) fetal bovine serum and 1% (v/v) penicillin-streptomycin (PS) and allowed to grow to 40% confluence in a 96-well plate. Curcumin Treatment. Two hours before drug treatment, the medium in each well was replaced with 200 μl Neurobasal medium supplemented with 2% (v/v) B27 and 1% (v/v) PS (Drug-treatment Medium). A stock solution (40 mM) of curcumin was prepared in sterile dimethyl sulfoxide (DMSO) (Example 1). Through serial dilution of each stock solution in Drug-treatment Medium, the following concentrations were obtained: 20 μM and 50 μM (for caspase 3/7 assays) or 25 μM and 50 μM (for MTT assays). Drug-treatment Medium in each well was aspirated, and a drug solution of each concentration or carrier-containing medium (control) was added to triplicate wells of cells (50 μl/well). […] Additionally, the background absorbance was determined from parallel wells containing only the Drug-treatment Medium plus a particular concentration of the drug (no cells). […] Fluorescence in each well was measured using the FLx 800 plate reader (Bio-Tek Instruments, Winooski, Vt.) set at 485/20 nm excitation and 528/20 nm emission wavelengths and the sensitivity of 70. […]"}, "melanoma cell lines": {"tested_on": "melanoma cell lines", "conditions": "melanoma cell lines (Siwak et al. 2005); cited from earlier work"}},
  "data": [
    {"smiles": "COc1cc(/C=C/C(=O)CC(=O)/C=C/c2ccc(O)c(OC)c2)ccc1O", "note": "[curcumin]", "values": [
      {"measurement": "BclXL (Western blot)", "setting": "BclXL", "result": "suppression"},
      {"measurement": "apoptosis", "setting": "rat glioma cells", "result": "triggers apoptosis"},
      {"measurement": "cell viability (MTT)", "setting": "[1]", "result": "dramatic decrease"},
      {"measurement": "condition of mice after treatment", "setting": "[2]; even after the curcumin injection had been discontinued for 18 days, carrier mice died in about a month", "result": "remained normal indefinitely"},
      {"measurement": "outward sign of tumor or lesion", "setting": "[2]; male and female C57BL mice, B16F10 cells in neck, 667 curcumin in 200 μl PBS 3% DMSO daily, tail vein", "result": "no outward sign of tumor or lesion"},
      {"measurement": "caspase-3/7 activity", "setting": "[3]", "result": "increased"},
      {"measurement": "apoptosis", "setting": "melanoma cell lines", "result": "induces apoptosis"}
    ]}
  ]
}
